Measurements published in ChEMBL document CHEMBL1150696, “Griffonianone D, an isoflavone with anti-inflammatory activity from the root bark of Millettia griffoniana” (2003).
The source made the active and inactive calls. The rule behind the calls is not given here.

Key:
[1] = system: Mus musculus; assay: Antiinflammatory activity against PLA2-induced Swiss mouse paw edema at 5 mg/kg, ip administered 30 mins before PLA2 challenge; assay type: functional; details: route intraperitoneal
[2] = system: Mus musculus; assay: Antiinflammatory activity against PLA2-induced Swiss mouse paw edema at 5 mg/kg, ip administered 30 mins before PLA2 challenge
[3] = system: Mus musculus; assay: Antiinflammatory activity against PLA2-induced Swiss mouse paw edema at 5 mg/kg, ip administered 60 mins before PLA2 challenge; assay type: functional; details: route intraperitoneal
[4] = system: Mus musculus; assay: Antiinflammatory activity against TPA-induced Swiss mouse ear edema assessed as reduction in ear swelling at 0.25 mg/ear topically after 4 hrs relative to control; assay type: functional
[5] = target: T1, Polyunsaturated fatty acid 5-lipoxygenase (Rattus norvegicus) (UniProt P12527); assay: Inhibition of 5-lipoxygenase in rat leukocytes assessed as inhibition of calcium ionophore A-23187/calcium-stimulated LTB4 production; assay type: cell-based
T1 sequence (whole entry): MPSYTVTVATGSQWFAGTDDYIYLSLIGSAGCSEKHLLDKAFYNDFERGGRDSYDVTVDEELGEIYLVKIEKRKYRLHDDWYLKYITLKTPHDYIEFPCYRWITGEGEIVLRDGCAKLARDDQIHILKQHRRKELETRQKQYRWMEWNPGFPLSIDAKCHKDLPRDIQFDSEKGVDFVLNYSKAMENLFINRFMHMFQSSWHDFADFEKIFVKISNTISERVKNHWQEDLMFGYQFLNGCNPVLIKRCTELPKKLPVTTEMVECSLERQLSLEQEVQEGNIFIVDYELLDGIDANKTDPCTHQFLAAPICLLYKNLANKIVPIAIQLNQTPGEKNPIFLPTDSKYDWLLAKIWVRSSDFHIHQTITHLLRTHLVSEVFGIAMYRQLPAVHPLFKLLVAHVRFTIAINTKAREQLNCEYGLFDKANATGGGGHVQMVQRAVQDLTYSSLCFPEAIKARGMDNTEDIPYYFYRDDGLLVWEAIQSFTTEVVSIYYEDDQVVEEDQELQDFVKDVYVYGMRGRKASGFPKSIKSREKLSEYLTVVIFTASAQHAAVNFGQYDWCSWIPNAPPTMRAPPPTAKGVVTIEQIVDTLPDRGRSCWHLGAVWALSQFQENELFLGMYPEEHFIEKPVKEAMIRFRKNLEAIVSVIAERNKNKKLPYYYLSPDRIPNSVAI

[6] = target: Prostaglandin G/H synthase 1 (Homo sapiens) (UniProt P23219); assay: Inhibition of cyclooxygenase 1 in human platelet assessed as 12-hydroxyheptadecatrienoic acid production
Sequence of Prostaglandin G/H synthase 1 (Homo sapiens) (P23219 whole entry): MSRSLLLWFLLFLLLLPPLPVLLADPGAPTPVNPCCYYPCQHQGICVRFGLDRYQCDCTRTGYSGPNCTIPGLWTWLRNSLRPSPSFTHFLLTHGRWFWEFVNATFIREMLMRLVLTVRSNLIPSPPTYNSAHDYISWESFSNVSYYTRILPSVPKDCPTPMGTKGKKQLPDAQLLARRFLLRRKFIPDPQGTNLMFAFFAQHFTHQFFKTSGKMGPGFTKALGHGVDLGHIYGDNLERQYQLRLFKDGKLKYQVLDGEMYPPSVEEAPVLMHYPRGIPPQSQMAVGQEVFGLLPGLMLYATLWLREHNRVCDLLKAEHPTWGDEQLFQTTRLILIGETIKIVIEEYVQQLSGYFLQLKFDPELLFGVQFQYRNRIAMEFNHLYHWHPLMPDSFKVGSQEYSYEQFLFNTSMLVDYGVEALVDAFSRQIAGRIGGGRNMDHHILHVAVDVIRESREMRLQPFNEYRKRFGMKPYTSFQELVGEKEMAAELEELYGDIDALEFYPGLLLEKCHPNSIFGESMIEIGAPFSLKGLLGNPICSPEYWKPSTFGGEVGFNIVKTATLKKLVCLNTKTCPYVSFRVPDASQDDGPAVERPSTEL

[7] = system: Mus musculus; assay: Antiinflammatory activity against carrageenan-induced Swiss mouse paw edema at 10 mg/kg, po; assay type: functional
[8] = system: Mus musculus; assay: Antiinflammatory activity against TPA-induced Swiss mouse ear edema assessed as reduction in ear swelling at 0.5 mg/ear topically after 4 hrs relative to control; assay type: functional

Activity [5]	Activity [6]	SMILES	inhibition in vivo at 5 mg/kg [1]	inhibition in vivo at 5 mg/kg [2]	inhibition in vivo at 5 mg/kg [3]	inhibition (INH) [4]	inhibition in vivo at 10 mg/kg [7]	inhibition (INH) [8]
		CN1CCC(=C2c3ccccc3C=Cc3ccccc32)CC1 [CYPROHEPTADINE]	82%	82%				
inactive	inactive	COc1ccc(-c2coc3cc(OC/C=C(\C)CCC(O)C(C)(C)O)ccc3c2=O)cc1 (centres undefined) [GRIFFONIANONE D]	42%		30%	77%		
		COc1ccc2c(c1)c(CC(=O)O)c(C)n2C(=O)c1ccc(Cl)cc1 [INDOMETHACIN]					60%	82%
